Data: patent publication US4088755A, “Medicament for remedying schizophrenia” (priority 1975, dated 1978)

Key:
[1] = system: patients with schizophrenia; assay: Clinical data: case reports (Cases 1 to 6) of schizophrenic patients on neuroleptics, L-Dopa and TRH; format: in vivo, human
[2] = system: psychotic patients / patients with schizophrenia; format: in vivo, human
Text: L-Pyroglutamyl-L-histidyl-L-prolinamide (thyrotropin-releasing hormone; hereinafter referred to as TRH) is a hypothalamic hormone which can be synthesized chemically and has been used as a diagnostic agent or as an antidepressant. […] It is known, however, that, although the onset of the effect of TRH on psychotic patients is very rapid, the duration of its effects is rather short. Thus, TRH alone cannot be a practical remedy for psychotic patients.
On the other hand, according to the present invention, a deterioration of the patients considered to be caused by TRH in the combined use is negligible and, therefore, determination of the dose is very easy.
Furthermore, although the effect of TRH on pyschotic patients is known to be transient, t therapeutic effects in accordance with the present invention last long even after withdrawal of TRH or its physiologically acceptable salts, alone or together with neuroleptics, which are administered to patients in combination. In this way, long lasting therapeutic effects, as well as the rapid onset of the effects are another excellent characteristic of this invention.

[3] = system: patients with schizophrenia; assay: Clinical data: case reports (Cases 1 to 6) of schizophrenic patients on neuroleptics, L-Dopa and TRH; format: in vivo, human; remark: listed apart in the source
Description: The following clinical data as well as Examples are only for illustrative purposes and are not at all intended to limit or to restrict the scope of the invention.
On April 14, they came back to their home town and, on the following day, was admitted to hospital.
On July 10, TRH tartrate monohydrate 4 mg. (2.73 mg. in terms of free TRH) per day (2 mg. each in the morning and night) began to be administered orally in combination with thioridazine, 50 mg. per day, and trihexyphenydyl 6 mg. per day. […] On July 31, the administration of TRH was stopped.
In February 1961, the patient was admitted for the first time to Y hospital in a state of catatonic stupor. After receiving electroshock therapy and chlorpromazine, they were discharged from the hospital on April 19 of the same year. On May 26, 1966 they were again admitted to the same hospital this time in a state of catatonic excitement. […] Beginning on April 3, 1971, thioridazine, 300 mg. per day, and L-Dopa, 400 mg. daily, were added to the therapeutic regime. […] From the 9th day on, the dosage of L-Dopa was increased to 600 mg. daily. […] At the 19th week, the dosage of L-Dopa was reduced to 400 mg. and the drug was discontinued that week-end.
Hospital therapy was started with chlorpromazine, 400 mg. per day, and spiperone, 1 mg. per day. […] Consequently, the dosage of chlorpromazine was raised to 500 mg. per day. […] Beginning on August 9, penfluridol, 20 to 40 mg. twice weekly, was added to the preceding regimen of chlorpromazine 500 mg. daily. On June 26, 1973, the dosage of chlorpromazine was reduced to 200 mg. per day. Shortly thereafter, L-Dopa, 100 mg. daily, was added to the regimen from July 5 on. The dosage of L-Dopa was then increased gradually up to 600 mg. per day and finally discontinued on August 30.
On July 2, 1974, they were started on clocapramine, 75 mg. daily, to which TRH tartrate monohydrate, 4 mg. (2.73 mg. in terms of free TRH) daily, was orally added from July 29 on.

[4] = system: psychotic patients / patients with schizophrenia; conditions: cited from earlier work

O=C(CCCN1CCC(O)(c2ccc(Cl)cc2)CC1)c1ccc(F)cc1 [Haloperidol]
Clinical outcome, Case 4, haloperidol ([1]; 4 mg daily initially, increased up to 100 mg): failed to elicit any appreciable symptomatic response

N[C@@H](Cc1ccc(O)c(O)c1)C(=O)O [L-Dopa, L-3,4-dihydroxyphenylalanine]
Side-effects of L-Dopa in combined use ([2]; human, in vivo): an excessive does of L-Dopa results in the production of side-effects in the patients | Effect of L-Dopa in small doses with conventionally used neuroleptics ([2]; schizophrenia, observed by the present inventors): marked improvement of the overall clinical picture in schizophrenia | Clinical outcome, Case 3, L-Dopa with thioridazine ([1]; L-Dopa 300 mg daily with thioridazine 200 mg daily): their spontaneity increased to an extent greater than that achieved before | Clinical outcome, Case 2, L-Dopa therapy (1973) ([1]; L-Dopa 100 up to 600 mg per day added to chlorpromazine 200 mg per day and penfluridol, autism and abulia persisted): His general clinical picture improved to a considerable extent | Time condition remained the same after withdrawal of L-Dopa, Case 3 ([1]; after about 5 months of usage with thioridazine): about 4 months | Clinical outcome, Case 3, L-Dopa with chlorpromazine ([1]; person, L-Dopa 400 mg with chlorpromazine 300 mg per day, end of 3rd week): an appreciable improvement in their facial expression | Side effects, Case 3, L-Dopa 1000 mg daily ([1]; with chlorpromazine 300 mg per day): they seemed irritated to some extent and complained of sleeping trouble | Side effects, Case 3, L-Dopa 1200 mg ([1]; with chlorpromazine 300 mg per day, led to discontinuation): appearance of auditory hallucination | Clinical outcome, Case 2, L-Dopa with thioridazine (1971) ([3]; person, L-Dopa 400-600 mg daily with thioridazine 300 to 100 mg per day, 19th week): had no morbid experience and appeared to have a clear insight

NC(=O)[C@@H]1CCCN1C(=O)[C@H](Cc1cnc[nH]1)NC(=O)[C@@H]1CCC(=O)N1 [TRH, L-Pyroglutamyl-L-histidyl-L-prolinamide]
Deterioration of the patients considered to be caused by TRH in the combined use ([2]; human, in vivo): negligible | Persistence of remission after withdrawal of TRH, Case 1 ([1]; TRH stopped July 31, other drugs continued): His state of remission has been maintained until now | Persistence of improvement after withdrawal of TRH, Case 5 ([1]; TRH stopped on 15th day): the improvement has continued even after withdrawal of TRH | Clinical outcome, Case 3, TRH with thioridazine ([1]; TRH tartrate monohydrate 8 mg daily (5.46 mg free TRH) orally with thioridazine 200 mg daily for two weeks, from 4th day): Their participation in work and recreational activities became more positive and their action became more agile than when they were placed on L-Dopa | Onset of subjective effect, Case 6 ([1]; i.v. TRH, patient felt light in the head and free from depressed feeling): One hour after the first injection | Persistence of effect of TRH therapy after discontinuation, Case 3 ([1]; on thioridazine alone): two | Clinical outcome, Case 6, intravenous TRH with neuroleptics ([1]; person, 730 μg TRH tartrate monohydrate (500 μg free TRH)/day i.v., 5 injections, with perphenazine 12 mg/day, diazepam 10 mg/day, vegetamim B 1 tablet/day): Remarkable improvement in the symptoms was recognized subjectively as well as objectively | Time remission maintained after withdrawal of TRH, Case 2 ([3]; on clocapramine 75 mg daily alone, remission maintained most of the time): 4 months | Effect of TRH alone in patients with schizophrenia ([4]; The Lancet, July 7, 1973, pages 43 and 44): produce emotional warmth, lucidity of though and accessibility of psychotherapy | Duration of effects of TRH alone ([4]; psychotic patients): rather short | Onset of effect of TRH alone ([4]; psychotic patients): very rapid

CN(C)CCCN1c2ccccc2Sc2ccc(Cl)cc21 [chlorpromazine, Chlorpromazine]
Clinical outcome, Case 4, oral chlorpromazine ([1]; person, initial 100 mg daily, gradually increasing dose): without result | Clinical outcome, Case 2, chlorpromazine with spiperone ([3]; chlorpromazine 400 mg per day and spiperone 1 mg per day, other symptoms virtually unaffected): their negativism and psychomotor excitement seemed to disappear almost completely
